# In patent US11684606B2, “Methods of treating generalized pustular psoriasis with an antagonist of CCR6 or CXCR2” (CHEMOCENTRYX, INC., priority 2018, dated 2023):
# What was measured:
# [1] = tested on: IL-36α-injected ears of Balb/c mice; assay: Mouse model of IL-36-induced ear thickening (GPP model); type: in vivo; conditions: intradermal IL36 mouse model (Example 1)
# Protocol: (§1) For in vivo dosing, mice were dosed subcutaneously with Compound 1.136 once daily (s.c. q.d. in 1% HPMC) at 90 mg/kg unless stated otherwise, starting at day 0 of a study. The in vivo dose was predicted based on in vitro potency and the pharmacokinetic response to a single dose in mice. The minimum antagonist concentration (at trough) to fully cover a gradient-sensing chemoattractant receptor has been determined to correspond with the IC90 concentration (Schall, T. J., and A. E. Proudfoot. 2011. Overcoming hurdles in developing successful drugs targeting chemokine receptors. Nat Rev Immunol 11: 355-363).
# Mouse model of IL-36-induced ear thickening. The right ear of 8-week old Balb/c mice received intradermal injections of recombinant murine IL-36α (150 μg per mouse formulated in PBS; BioLegend) every day for 5 days. Intradermal injections of PBS were given to the left ear as a control. Ear thickness was measured prior to start of study and each day thoughout the study using a digital micrometer. The imiquimod model of psoriasiform dermatitis was performed as previously described (Campbell Jet al. J Immunol. 2017; 199(9):3129-36. van der Fits et al. J Immunol 2009; 182(9):5836-45). Briefly, 5% Imiquimod (Fougera®) was applied daily to the shaved and depilated backs of Balb/c mice for up to 4 days. Control mice were treated with an application of Vaseline. Erythema, desquamation, and skin thickening were scored independently on a scale from 0 to 4 where 0=no disease; 1=slight disease; 2=moderate disease; 3=marked disease; 4=very marked disease (Campbell J et al. J Immunol. 2017; 199(9):3129-36. van der Fits et al. J Immunol 2009; 182(9):5836-45). Skin from the backs of mice was excised at the end of the study and processed for flow cytometry analysis,
# Mouse anti-IL-17RA. (R&D Systems) was dosed as a positive control at 200-500 μg per mouse, i.p., q.d.
# [2] = tested on: CD4 T cells, neutrophils and inflammatory dendritic cells within IL-36-treated skin; assay: Flow cytometry of leukocytes accumulating in IL-36-treated skin; type: in vivo, mouse; conditions: intradermal IL36 mouse model (Example 1)
# Protocol: as §1
# Flow cytometry of leukocytes. Ears or excised skin samples were digested in collagenase A and 1 U/ml DNAse I with agitation for 30 min at 37° C. Cells were then dislodged from skin, filtered through a […] sieve, washed and re-suspended in FACS buffer (PBS with 10% FBS) for analysis.
# Directly conjugated Monoclonal antibodies were from R&D Systems (Minneapolis, Minn.), BioLegend (San Diego, Calif.), or eBioscience/ThermoFisher (San Diego, Calif.). CD45.2 (104) in AlexaFluor488, Ly6C (HK1.4) in PE, CD90.2 (30-H12) in Per CP-Cy5.5, TCRVγ4 (UC3-10A6) in PE-Cy7, TCRβ (H57-597) in APC, CD4 (GK1.5) in APC-eFluor-780, TCRγδ (GL3) in BV-421, LIVE/DEAD fixable Aqua stain (Molecular Probes, Eugene, Oreg.), CD11c (N418) in BV650, Ly6G (1A4) in BV711 and CD11b (M1/70) in BV785. Flow cytometry data were acquired with a Fortessa (BD Biosciences) cytometer and analyzed using FlowJo v10.2
# [3] = tested on: imiquimod-treated skin of Balb/c mice; conditions: reported in a previous study; cited from earlier work
smiles,measurement,setting,value
CC(C)(C)[C@@H](Nc1c(Nc2ccc(Cl)c3c2C(=O)NC3)c(=O)c1=O)c1ccc(Cl)o1 [Compound 1.129],IL36-induced inflammation,[1],reduces IL36-induced inflammation
same,Accumulation of CD4+αβ T cell population in IL36-inflamed skin,[2],preventing accumulation
same,Inflammation in topical imiquimod-induced model of plaque psoriasis,[3],ameliorates inflammation
